In assay [1] the test system is GFP-TEAD4 condensates in HEK293FT cells. The assay can be described thus: GFP-TEAD4 condensate imaging, condensed fraction in cells. The assay is classed as cell-based. The conditions noted are these: Figure 2D source data, GFP-TEAD4 condensates with co-expressed cofactor, with or without 1,6-Hex, single measurement.
Another assay has as its system HGC-27 cells. Put plainly: siRNA screening based on cell growth. On the set-up: species or system human. The conditions noted are these: Figure 2B source data; siRNA against the named gene; Z score based analysis. The procedure:
For screening based on cell growth, HGC-27 cells (2000 per well) were seeded into a 96-well plate overnight. The individual siRNAs targeting 192 BioID-identified genes were then added into each well to a final concentration of 25 nM. After subsequent incubation for 48 h, the cells were analyzed using an ATP-based CellCounting-Lite^TM 2.0 reagent (Vazyme, Nanjing, China) according to the manufacturer’s instructions. The intracellular ATP contents were measured using an EnSight™ Multimode Microplate Reader (Perkin Elmer).

The test system of a further assay is GFP-TEAD4 condensates. Put plainly: siRNA screening based on TEAD4 condensate. The assay is classed as cell-based. The conditions noted are these: Figure 2B source data; siRNA against the named gene; Z score based analysis. The procedure:
siRNA reagents were obtained from the Dharmacon Human ON-TARGETplus siRNA Smartpool Library (Thermo) as described previously (Tang et al, [2020]). […] Lipofectamine RNAiMAX reagent (Thermo) at a volume of 0.05 μl per well was then added to the siRNA-loaded plates. Subsequently, cells expressing GFP-TEAD4 were seeded into the plate at 2000 cells per well. After subsequent transfection for 48 h, the cells were fixed with 4% PFA at room temperature for 30 min. DAPI was used to identify individual nuclei. The plates were kept at 4 °C in the dark before being analyzed using the Opera system. Twenty focus fields per well were scanned and analyzed. Scrambled siRNA was used as an internal reference on each plate.

Take “VGLL4: transcriptional cofactor protein with two TDU domains binding TEAD4”: the Condensed fraction in assay [1] (replicate 1 of 9) is reported as 31.2622%; in assay [1] (replicate 2 of 9), 58.3357%; in assay [1] (replicate 3 of 9), 38.0997%; in assay [1] (replicate 4 of 9), 50.0073%; in assay [1] (replicate 5 of 9) it was 50.0033%; in assay [1] (replicate 6 of 9) it was 46.4819%. In addition, the Condensed fraction worked out at 42.8861% in assay [1] (replicate 7 of 9), 42.8738% in assay [1] (replicate 8 of 9) and 35.7201% in assay [1] (replicate 9 of 9). In addition, the “Z score of cell growth” value with HGC-27 cells was 3.062. The “Z score of condensed fraction” value in the assay on GFP-TEAD4 condensates was -4.055.

The values above are taken from paper PMC11574045, “A cofactor-induced repressive type of transcription factor condensation can be induced by synthetic peptides to suppress tumorigenesis” (The EMBO Journal, 2024).
